{"source": "patent US20260285850A1", "about": "“SUBSTITUTED OXAZOLIDINONES AND IMIDAZOLINONES AS HERBICIDES” (FMC CORPORATION, priority 2023, published 2026)", "assay_type_in_all_cases": "in vivo", "key": {"corn (Zea mays) [1]": {"system": "corn (Zea mays)", "assay": "Test A postemergence application, visual injury rating 0-100", "method_in_brief": "(§1)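 Visual injury ratings (0, no effect; 100, complete control) were assigned relative to untreated plants 10 days after treatment. Test chemicals, formulated with a surfactant-containing non-phytotoxic solvent, were applied in loam-sand soil either as a directed soil spray before emergence or to emerged plants, and plants were kept in a greenhouse.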"}, "[2]": {"system": "ryegrass, Italian (italian ryegrass, Lolium multiflorum)", "assay": "Test A postemergence application, visual injury rating 0-100", "method_in_brief": "as §1"}, "[3]": {"system": "palmer (palmer amaranth, palmer pigweed, Amaranthus palmeri)", "assay": "Test A postemergence application, visual injury rating 0-100", "method_in_brief": "as §1"}, "[4]": {"system": "wheat (Triticum aestivum)", "assay": "Test A postemergence application, visual injury rating 0-100", "method_in_brief": "as §1"}, "kochia (Bassia scoparia) [5]": {"system": "kochia (Bassia scoparia)", "assay": "Test A postemergence application, visual injury rating 0-100", "method_in_brief": "as §1"}, "[6]": {"system": "blackgrass (Alopecurus myosuroides)", "assay": "Test A postemergence application, visual injury rating 0-100", "method_in_brief": "as §1"}, "soybean (Glycine max) [7]": {"system": "soybean (Glycine max)", "assay": "Test A postemergence application, visual injury rating 0-100", "method_in_brief": "as §1"}, "[8]": {"system": "green foxtail (Setaria viridis)", "assay": "Test A postemergence application, visual injury rating 0-100", "method_in_brief": "as §1"}, "[9]": {"system": "oat, wild (wild oat, Avena fatua)", "assay": "Test A postemergence application, visual injury rating 0-100", "method_in_brief": "as §1"}, "[10]": {"system": "galium (catchweed bedstraw, Galium aparine)", "assay": "Test A postemergence application, visual injury rating 0-100", "method_in_brief": "as §1"}, "[11]": {"system": "ragweed (common ragweed, Ambrosia artemisiifolia)", "assay": "Test A postemergence application, visual injury rating 0-100", "method_in_brief": "as §1"}, "[12]": {"system": "barnyardgrass (Echinochloa crus-galli)", "assay": "Test A postemergence application, visual injury rating 0-100", "method_in_brief": "as §1"}, "[13]": {"system": "horseweed (Erigeron canadensis)", "assay": "Test A postemergence application, visual injury rating 0-100", "method_in_brief": "as §1"}, "rice (Oryza sativa)": {"system": "rice (Oryza sativa)", "assay": "Test B flooded paddy test, visual plant response rating 0-100", "settings": "250 g ai/ha, Flood, applied to paddy water, evaluated after 13 days", "method_in_brief": "(§2)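 Visual scores versus untreated controls were recorded 13 days after treatment of greenhouse-held plants. At the 2-leaf stage, pots were flooded 3 cm above the soil surface and compounds added straight to the water.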"}, "[14]": {"system": "ducksalad (Heteranthera limosa)", "assay": "Test B flooded paddy test, visual plant response rating 0-100", "settings": "250 g ai/ha, Flood, applied to paddy water, evaluated after 13 days", "method_in_brief": "as §2"}, "[15]": {"system": "barnyardgrass (Echinochloa crusgalli)", "assay": "Test B flooded paddy test, visual plant response rating 0-100", "settings": "250 g ai/ha, Flood, applied to paddy water, evaluated after 13 days", "method_in_brief": "as §2"}, "[16]": {"system": "sedge, umbrella (small-flower umbrella sedge, Cyperus difformis)", "assay": "Test B flooded paddy test, visual plant response rating 0-100", "settings": "250 g ai/ha, Flood, applied to paddy water, evaluated after 13 days", "method_in_brief": "as §2"}, "corn (Zea mays) [17]": {"system": "corn (Zea mays)", "assay": "Test A preemergence soil spray, visual injury rating 0-100", "settings": "10 days", "method_in_brief": "as §1"}, "[18]": {"system": "ryegrass, Italian (italian ryegrass, Lolium multiflorum)", "assay": "Test A preemergence soil spray, visual injury rating 0-100", "settings": "10 days", "method_in_brief": "as §1"}, "[19]": {"system": "palmer (palmer amaranth, palmer pigweed, Amaranthus palmeri)", "assay": "Test A preemergence soil spray, visual injury rating 0-100", "settings": "10 days", "method_in_brief": "as §1"}, "[20]": {"system": "wheat (Triticum aestivum)", "assay": "Test A preemergence soil spray, visual injury rating 0-100", "settings": "10 days", "method_in_brief": "as §1"}, "kochia (Bassia scoparia) [21]": {"system": "kochia (Bassia scoparia)", "assay": "Test A preemergence soil spray, visual injury rating 0-100", "settings": "10 days", "method_in_brief": "as §1"}, "[22]": {"system": "blackgrass (Alopecurus myosuroides)", "assay": "Test A preemergence soil spray, visual injury rating 0-100", "settings": "10 days", "method_in_brief": "as §1"}, "soybean (Glycine max) [23]": {"system": "soybean (Glycine max)", "assay": "Test A preemergence soil spray, visual injury rating 0-100", "settings": "10 days", "method_in_brief": "as §1"}, "[24]": {"system": "green foxtail (Setaria viridis)", "assay": "Test A preemergence soil spray, visual injury rating 0-100", "settings": "10 days", "method_in_brief": "as §1"}, "[25]": {"system": "oat, wild (wild oat, Avena fatua)", "assay": "Test A preemergence soil spray, visual injury rating 0-100", "settings": "10 days", "method_in_brief": "as §1"}, "[26]": {"system": "ragweed (common ragweed, Ambrosia artemisiifolia)", "assay": "Test A preemergence soil spray, visual injury rating 0-100", "settings": "10 days", "method_in_brief": "as §1"}, "[27]": {"system": "barnyardgrass (Echinochloa crus-galli)", "assay": "Test A preemergence soil spray, visual injury rating 0-100", "settings": "10 days", "method_in_brief": "as §1"}, "[28]": {"settings": "62 g ai/ha, postemergence, 10 days, 0 = no effect, 100 = complete control"}, "[29]": {"settings": "Postemergence, 16 g ai/ha, greenhouse 10 days, 0 no effect, 100 complete control"}, "[30]": {"settings": "62 g ai/ha, 0 = no effect, 100 = complete control"}}, "data": [{"compound": "CC(C)OC(=O)C1=CCC(NC(=O)C2(C)CN(c3cc(F)cc(F)c3)C(=O)O2)C1", "note": "(stereo not shown) [Compound 99]", "values": [{"measurement": "Corn plant response rating (0-100)", "setting": "corn (Zea mays) [1]; [28]", "value": 0}, {"measurement": "Corn plant response rating (0 to 100 scale)", "setting": "corn (Zea mays) [1]; [29]", "value": 0}, {"measurement": "Ryegrass, Italian plant response rating (0-100)", "setting": "[2]; [28]", "value": 0}, {"measurement": "Ryegrass, Italian plant response rating (0 to 100 scale)", "setting": "[2]; [29]", "value": 0}, {"measurement": "Pigweed, Palmer plant response rating (0-100)", "setting": "[3]; [28]", "value": 0}, {"measurement": "Pigweed, Palmer plant response rating (0 to 100 scale)", "setting": "[3]; [29]", "value": 0}, {"measurement": "Wheat plant response rating (0-100)", "setting": "[4]; [28]", "value": 10}, {"measurement": "Wheat plant response rating (0 to 100 scale)", "setting": "[4]; [29]", "value": 0}, {"measurement": "Kochia plant response rating (0-100)", "setting": "kochia (Bassia scoparia) [5]; [28]", "value": 0}, {"measurement": "Kochia plant response rating (0 to 100 scale)", "setting": "kochia (Bassia scoparia) [5]; [29]", "value": 0}, {"measurement": "Blackgrass plant response rating (0-100)", "setting": "[6]; [28]", "value": 0}, {"measurement": "Blackgrass plant response rating (0 to 100 scale)", "setting": "[6]; [29]", "value": 0}, {"measurement": "Soybean plant response rating (0-100)", "setting": "soybean (Glycine max) [7]; [28]", "value": 20}, {"measurement": "Soybean plant response rating (0 to 100 scale)", "setting": "soybean (Glycine max) [7]; [29]", "value": 0}, {"measurement": "Foxtail, Green plant response rating (0-100)", "setting": "[8]; [28]", "value": 0}, {"measurement": "Foxtail, Green plant response rating (0 to 100 scale)", "setting": "[8]; [29]", "value": 0}, {"measurement": "Oat, Wild plant response rating (0-100)", "setting": "[9]; [28]", "value": 0}, {"measurement": "Oat, Wild plant response rating (0 to 100 scale)", "setting": "[9]; [29]", "value": 0}, {"measurement": "Galium plant response rating (0-100)", "setting": "[10]; [28]", "value": 20}, {"measurement": "Galium plant response rating (0 to 100 scale)", "setting": "[10]; [29]", "value": 20}, {"measurement": "Ragweed plant response rating (0-100)", "setting": "[11]; [28]", "value": 0}, {"measurement": "Ragweed plant response rating (0 to 100 scale)", "setting": "[11]; [29]", "value": 0}, {"measurement": "Barnyardgrass plant response rating (0-100)", "setting": "[12]; [28]", "value": 0}, {"measurement": "Barnyardgrass plant response rating (0 to 100 scale)", "setting": "[12]; [29]", "value": 0}, {"measurement": "Horseweed plant response rating (0-100)", "setting": "[13]; [28]", "value": 0}, {"measurement": "Horseweed plant response rating (0 to 100 scale)", "setting": "[13]; [29]", "value": 0}, {"measurement": "Plant response rating, Rice (0 to 100 scale, 0 is no effect and 100 is complete control)", "setting": "rice (Oryza sativa)", "value": 0}, {"measurement": "Plant response rating, Ducksalad (0 to 100 scale, 0 is no effect and 100 is complete control)", "setting": "[14]", "value": 0}, {"measurement": "Plant response rating, Barnyardgrass (0 to 100 scale, 0 is no effect and 100 is complete control)", "setting": "[15]", "value": 0}, {"measurement": "Plant response rating, Sedge, Umbrella (0 to 100 scale, 0 is no effect and 100 is complete control)", "setting": "[16]", "value": 0}, {"measurement": "Corn plant response rating", "setting": "corn (Zea mays) [17]; 16 g ai/ha, 0 to 100 scale", "value": 0}, {"measurement": "Corn plant response rating (0-100)", "setting": "corn (Zea mays) [17]; [30]", "value": 0}, {"measurement": "Ryegrass, Italian plant response rating", "setting": "[18]; 16 g ai/ha, 0 to 100 scale", "value": 0}, {"measurement": "Ryegrass, Italian plant response rating (0-100)", "setting": "[18]; [30]", "value": 0}, {"measurement": "Pigweed, Palmer plant response rating", "setting": "[19]; 16 g ai/ha, 0 to 100 scale", "value": 0}, {"measurement": "Pigweed, Palmer plant response rating (0-100)", "setting": "[19]; [30]", "value": 0}, {"measurement": "Wheat plant response rating", "setting": "[20]; 16 g ai/ha, 0 to 100 scale", "value": 0}, {"measurement": "Wheat plant response rating (0-100)", "setting": "[20]; [30]", "value": 0}, {"measurement": "Kochia plant response rating", "setting": "kochia (Bassia scoparia) [21]; 16 g ai/ha, 0 to 100 scale", "value": 0}, {"measurement": "Kochia plant response rating (0-100)", "setting": "kochia (Bassia scoparia) [21]; [30]", "value": 0}, {"measurement": "Blackgrass plant response rating", "setting": "[22]; 16 g ai/ha, 0 to 100 scale", "value": 0}, {"measurement": "Blackgrass plant response rating (0-100)", "setting": "[22]; [30]", "value": 0}, {"measurement": "Soybean plant response rating", "setting": "soybean (Glycine max) [23]; 16 g ai/ha, 0 to 100 scale", "value": 0}, {"measurement": "Soybean plant response rating (0-100)", "setting": "soybean (Glycine max) [23]; [30]", "value": 0}, {"measurement": "Foxtail, Green plant response rating", "setting": "[24]; 16 g ai/ha, 0 to 100 scale", "value": 0}, {"measurement": "Foxtail, Green plant response rating (0-100)", "setting": "[24]; [30]", "value": 40}, {"measurement": "Oat, Wild plant response rating", "setting": "[25]; 16 g ai/ha, 0 to 100 scale", "value": 20}, {"measurement": "Oat, Wild plant response rating (0-100)", "setting": "[25]; [30]", "value": 50}, {"measurement": "Ragweed plant response rating", "setting": "[26]; 16 g ai/ha, 0 to 100 scale", "value": 0}, {"measurement": "Ragweed plant response rating (0-100)", "setting": "[26]; [30]", "value": 0}, {"measurement": "Barnyardgrass plant response rating", "setting": "[27]; 16 g ai/ha, 0 to 100 scale", "value": 0}, {"measurement": "Barnyardgrass plant response rating (0-100)", "setting": "[27]; [30]", "value": 0}]}]}
